Reference: publication PMC7901699, “Challenging inflammatory process at molecular, cellular and in vivo levels via some new pyrazolyl thiazolones” (Journal of Enzyme Inhibition and Medicinal Chemistry, 2021)

Tests used:
[1] = tested on: cotton pellet-induced granuloma; assay: Cotton pellet-induced granuloma assay (chronic inflammation model); details: oral 5 mg/kg daily; pellets excised on 8th day; vs diclofenac sodium and celecoxib
[2] = tested on: formalin-induced rat paw oedema; assay: Formalin-induced paw oedema test (acute inflammation model); assay type: in vivo, Wistar rats; details: oral 5 mg/kg once daily for seven days; oedema 4 h after formalin; vs diclofenac sodium and celecoxib 5 mg/kg
Procedure: A freshly prepared 5% formalin solution (prepared from 37% formaldehyde and saline (Merck, Germany)) was used as a phlogistic agent. Test and reference compounds (5 mg/kg body weight) were dissolved in DMSO and given orally with gastric gavage once per day for seven consecutive days, whereas DMSO was administered to the control group. On the 8th day, the initial paw volume was determined by a Vernier calliper. Then, a subcutaneous injection of 40 μl formalin was introduced into the right hind paw of all groups under light ether anaesthesia. The paw volume was measured 4 h after the formalin injection and the oedema volume was calculated by the difference in paw volume before and 4 h after the formalin injection. The percentage inhibition of oedema (or % protection against inflammation) was calculated for each compound as previously reported[34]^,[35].

15-LOX = molecular target: T1, 15-LOX (Glycine max, UniProt P08170); assay: In vitro 15-LOX inhibition assay (lipoxygenase inhibitor screening kit, Cayman); assay type: biochemical
T1 construct: purchased Cayman chemicals 760700
T1 sequence (P08170 1-839): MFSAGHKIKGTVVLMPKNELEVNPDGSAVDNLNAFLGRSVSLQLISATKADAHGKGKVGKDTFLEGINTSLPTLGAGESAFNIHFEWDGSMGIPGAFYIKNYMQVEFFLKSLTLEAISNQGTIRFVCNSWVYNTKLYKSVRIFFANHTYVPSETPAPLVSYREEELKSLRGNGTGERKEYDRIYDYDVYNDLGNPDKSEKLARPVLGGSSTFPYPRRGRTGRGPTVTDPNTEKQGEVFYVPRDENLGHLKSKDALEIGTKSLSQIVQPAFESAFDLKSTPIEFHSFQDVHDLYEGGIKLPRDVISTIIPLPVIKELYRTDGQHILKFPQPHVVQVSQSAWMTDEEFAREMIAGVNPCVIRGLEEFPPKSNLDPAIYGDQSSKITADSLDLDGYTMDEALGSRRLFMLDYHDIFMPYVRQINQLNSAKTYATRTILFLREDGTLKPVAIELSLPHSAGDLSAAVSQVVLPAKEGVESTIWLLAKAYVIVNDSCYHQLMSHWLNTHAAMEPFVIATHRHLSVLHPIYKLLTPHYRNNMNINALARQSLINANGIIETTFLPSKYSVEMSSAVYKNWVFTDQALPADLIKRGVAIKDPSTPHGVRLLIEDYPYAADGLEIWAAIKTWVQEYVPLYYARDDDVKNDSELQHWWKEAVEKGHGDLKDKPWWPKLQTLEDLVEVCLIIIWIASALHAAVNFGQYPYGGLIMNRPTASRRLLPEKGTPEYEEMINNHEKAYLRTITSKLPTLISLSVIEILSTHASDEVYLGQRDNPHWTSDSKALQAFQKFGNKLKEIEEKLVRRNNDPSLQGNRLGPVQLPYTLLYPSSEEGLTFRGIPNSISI
Procedure: (§1) Both assays were carried out in compliance with the manufacturer’s instructions and in accordance to prior studies[29]^,[33].
(§2) IC50 values (μM) and selectivity indices (SI) were calculated.

human recombinant COX-2 = molecular target: T2, human recombinant COX-2 (Homo sapiens, UniProt P35354); assay: In vitro COX-2 inhibition assay (colorimetric COX inhibitor screening kit, Cayman); assay type: biochemical
T2 construct: purchased Cayman Chemicals Inc. 560131
T2 sequence (P35354 18-604): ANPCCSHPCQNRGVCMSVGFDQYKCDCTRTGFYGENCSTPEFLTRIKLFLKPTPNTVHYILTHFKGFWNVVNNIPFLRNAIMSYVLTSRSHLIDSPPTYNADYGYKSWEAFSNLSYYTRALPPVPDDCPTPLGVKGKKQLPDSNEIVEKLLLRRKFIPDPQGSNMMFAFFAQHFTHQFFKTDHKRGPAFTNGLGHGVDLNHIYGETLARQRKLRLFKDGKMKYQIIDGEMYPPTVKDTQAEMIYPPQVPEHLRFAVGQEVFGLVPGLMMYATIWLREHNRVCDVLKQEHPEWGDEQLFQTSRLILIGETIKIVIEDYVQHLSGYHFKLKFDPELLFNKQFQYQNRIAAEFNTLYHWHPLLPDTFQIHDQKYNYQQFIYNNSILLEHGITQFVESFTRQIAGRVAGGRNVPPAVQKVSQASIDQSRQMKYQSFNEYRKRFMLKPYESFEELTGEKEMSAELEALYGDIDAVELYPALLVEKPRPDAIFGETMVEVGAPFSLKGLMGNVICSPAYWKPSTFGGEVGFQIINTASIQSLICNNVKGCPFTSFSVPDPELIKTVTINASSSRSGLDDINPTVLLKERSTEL
Procedure: as §1, §2

IL-1β = IL-1β protein expression by Western blotting; assay type: cell-based, human; details: 100 μM compound; PMA 24 h then LPS 72 h; normalised to GAPDH
Procedure: THP-1 monocytes were exposed to 100 μM of the test compounds, activated with 25 nM PMA for 24 h followed by 100 ng/ml LPS for 72 h. At the end of the incubation period, cells were harvested, proteins were extracted and SDS-PAGE electrophoresis, blotting, and antibody probing were conducted as described previously. Primary rabbit polyclonal antibodies to IL-1β, procaspase-3, and GAPDH were obtained from Abcam (Cambridge, UK). Clarity Western ECL substrate (BioRad, Hercules, CA, USA) was used to obtain a chemiluminescence signal captured by a Chemidoc imaging system (BioRad, Hercules, CA, USA). Band density was estimated using ImageJ software (National Institutes of Health, Bethesda, MD) and normalised to the GAPDH band density as a loading control.

SMILES: COc1ccc(-c2nn(-c3ccccc3)cc2/C=C2\SC(N3CCCCC3)=NC2=O)cc1 [Compound 7, (Z)-5-((3-(4-methoxyphenyl)-1-phenyl-1H-pyrazol-4-yl)methylene)-2-(piperidin-1-yl)thiazol-4(5H)-one]
- Inhibition of cotton pellet granuloma weight (in words) [1]: only superior to celecoxib
- Inhibition of formalin-induced rat paw oedema (in words) [2]: as effective as either diclofenac or celecoxib
- 15-LOX inhibition, potency compared with quercetin (in words) (15-LOX): almost equipotent to quercetin
- IC50 (15-LOX; mean of three determinations): 3.52 µM
- SI (COX-1/ COX-2) (human recombinant COX-2; IC50 (COX-1)/IC50 (COX-2)): 114
- IC50 (human recombinant COX-2; mean of three determinations): 0.09 µM
- IL-1β expression in PMA/LPS-challenged THP-1 (IL-1β): attenuating IL-1β production
